What all share (assay type): nucleic-acid assay
The subject of test [1] is Nucleic Acid. Nature of the test: Binding affinity to duplex DNA dA22.dT22 assessed as change in melting temperature at 3 uM by UV analysis at 260 nm.
For test [2], the system named is Nucleic Acid. Nature of the test: Binding affinity to duplex DNA polydA:polydT assessed as increase of CD signal at 360nm and at 200 uM compound concentration.
The test system of test [3] is Nucleic Acid. Nature of the test: Binding affinity to duplex DNA polydA:polydT assessed as decrease in viscosity at 200 uM.

Calls of active or inactive are those of the source. The calls are words filed in the database; no cut-off is given here.

The ΔTm is the change in melting temperature against a reference sample.

Turning to `CN1CCN(c2ccc3[nH]c(-c4ccc5[nH]c(-c6ccc(O)cc6)nc5c4)nc3c2)CC1`, the ΔTm with Nucleic Acid [1] amounted to 22 °C.

For `NC[C@H]1O[C@@H](O[C@H]2[C@@H](O)[C@H](O[C@H]3[C@H](O)[C@@H](N)C[C@@H](N)[C@@H]3O[C@H]3O[C@H](CN)[C@@H](O)[C@H](O)[C@H]3N)O[C@@H]2CCSCCNC(=S)NCCOCCOCCNC(=O)CCCc2ccc3ccc4cccc5ccc2c3c45)[C@@H](N)[C@H](O)[C@H]1O`, in the test with Nucleic Acid [1], the ΔTm was found to be 5 °C.

Consider `CN1CCN(c2ccc3[nH]c(-c4ccc5[nH]c(-c6ccc(OCCOCCOCCN(CCOCCOCCNC(=S)NCCSCC[C@H]7O[C@@H](O[C@H]8[C@H](O)[C@@H](N)C[C@@H](N)[C@@H]8O[C@H]8O[C@H](CN)[C@@H](O)[C@H](O)[C@H]8N)[C@H](O)[C@@H]7O[C@@H]7O[C@H](CN)[C@H](O)[C@@H](O)[C@@H]7N)C(=O)CCCc7ccc8ccc9cccc%10ccc7c8c9%10)cc6)nc5c4)nc3c2)CC1`, for which the ΔTm in the test with Nucleic Acid [1] is 35 °C. For the same molecule, the result in the test with Nucleic Acid [2] and in the test with Nucleic Acid [3] was Active.

In the case of `Nc1ccc2ccc3cccc4ccc1c2c34`, in the test with Nucleic Acid [1], the ΔTm amounted to 2 °C.

As for `CN1CCN(c2ccc3[nH]c(-c4ccc5[nH]c(-c6ccc(OCCOCCOCCOCCOCCOCCNC(=S)NCCSCC[C@H]7O[C@@H](O[C@H]8[C@H](O)[C@@H](N)C[C@@H](N)[C@@H]8O[C@H]8O[C@H](CN)[C@@H](O)[C@H](O)[C@H]8N)[C@H](O)[C@@H]7O[C@@H]7O[C@H](CN)[C@H](O)[C@@H](O)[C@@H]7N)cc6)nc5c4)nc3c2)CC1`, the ΔTm in the test on Nucleic Acid [1] amounted to 24 °C. Also, the result with Nucleic Acid [2] and with Nucleic Acid [3] was Active.

`CN1CCN(c2ccc3[nH]c(-c4ccc5[nH]c(-c6ccc(OCCOCCOCCN(CCOCCOCCN)C(=O)CCCc7ccc8ccc9cccc%10ccc7c8c9%10)cc6)nc5c4)nc3c2)CC1`: the ΔTm in the test with Nucleic Acid [1] was 16 °C.

In the case of `NC[C@@H]1O[C@H](O[C@H]2[C@@H](O)[C@H](O[C@@H]3[C@@H](O)[C@H](N)C[C@H](N)[C@H]3O[C@H]3O[C@H](CN)[C@@H](O)[C@H](O)[C@H]3N)O[C@@H]2CO)[C@H](N)[C@@H](O)[C@@H]1O`, the ΔTm with Nucleic Acid [1] is 0 °C.

Values taken from ChEMBL document CHEMBL1154209, “Triple recognition of B-DNA” (Bioorg Med Chem Lett, 2009).
